Biological target: T1, Type-2 angiotensin II receptor (Homo sapiens, UniProt P50052)
T1 sequence (P50052 whole entry): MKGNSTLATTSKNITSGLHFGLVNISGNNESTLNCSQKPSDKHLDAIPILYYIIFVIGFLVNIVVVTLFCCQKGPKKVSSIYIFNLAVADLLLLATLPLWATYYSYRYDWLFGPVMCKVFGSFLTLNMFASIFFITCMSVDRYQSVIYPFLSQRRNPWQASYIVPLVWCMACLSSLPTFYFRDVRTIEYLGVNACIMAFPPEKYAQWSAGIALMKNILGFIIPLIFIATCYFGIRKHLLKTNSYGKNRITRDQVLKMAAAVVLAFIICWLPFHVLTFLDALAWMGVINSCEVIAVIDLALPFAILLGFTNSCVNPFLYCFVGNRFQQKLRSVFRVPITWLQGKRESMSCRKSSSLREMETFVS
Experiment: Displacement of [125-I]-[Sar1, Ile8] from recombinant human AT2R transfected in human HEK293 cells incubated for 2 hrs by liquid scintillation counter analysis

IC50: 4 nM
Substance: H-DRVYIYPF-OH
